Earlier results as cited in patent publication US20220143126A1, “SYNERGISTIC COMBINATION OF PHYTOACTIVES” (priority 2019, published 2022).

Details: rats, concomitant administration of curcumin with piperine

COc1cc(/C=C/C(=O)CC(=O)/C=C/c2ccc(O)c(OC)c2)ccc1O [curcumin]
increase in bioavailability: 150%
